# Laboratory results: patent publication US12150995B2, “IRAK degraders and uses thereof” (Kymera Therapeutics, Inc., priority 2020, dated 2024)
# Biological target: T1, IRAK4 (Homo sapiens, UniProt Q9NWZ3)
# T1 construct: endogenous in cells; host or cells: OCI-LY10
# T1 sequence (Q9NWZ3 1-460): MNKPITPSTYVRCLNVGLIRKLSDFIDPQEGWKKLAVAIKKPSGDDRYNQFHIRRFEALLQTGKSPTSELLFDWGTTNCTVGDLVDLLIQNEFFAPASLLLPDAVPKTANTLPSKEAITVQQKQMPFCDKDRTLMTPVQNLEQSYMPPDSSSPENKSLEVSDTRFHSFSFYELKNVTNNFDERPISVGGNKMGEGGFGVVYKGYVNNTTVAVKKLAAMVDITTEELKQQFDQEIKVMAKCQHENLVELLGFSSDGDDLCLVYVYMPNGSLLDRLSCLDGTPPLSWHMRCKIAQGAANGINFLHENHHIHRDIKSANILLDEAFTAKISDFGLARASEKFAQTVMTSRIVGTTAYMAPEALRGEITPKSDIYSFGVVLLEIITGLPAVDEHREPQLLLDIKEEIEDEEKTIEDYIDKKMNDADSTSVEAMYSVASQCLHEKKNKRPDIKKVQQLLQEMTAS
# Assay: IRAK4 MSD Degradation in OCI-LY10
# Format: cell-based
# Details: OCI-LY10 cells, Meso Scale Discovery, incubated 4 to 24 hours
# In short: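 OCI-LY10 cells (300,000/well) exposed to an 8-point 1:3 series from a top concentration of 1 to 10 μM for 4 to 24 h at 37 °C. IRAK4 remaining in RIPA lysates quantified by MSD sandwich immunoassay; DC50 from a three-parameter logistic fit.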
row,DC50 [nM],Structure (SMILES)
1,> 200,"Cn1c(=O)n(C2CCC(=O)NC2=O)c2cccc(C3CCN(C(=O)[C@H]4CC[C@H](n5cc6cc(NC(=O)c7cccc(C(F)(F)F)n7)ccc6n5)CC4)CC3)c21 (some centres unmarked) [I-94, N-[2-[4-[4-[1-(2,6-dioxo-3-piperidyl)-3-methyl-2-oxo-benzimidazol-4-yl]piperidine-1-carbonyl]cyclohexyl]indazol-5-yl]-6-(trifluoromethyl)pyridine-2-carboxamide]"
2,> 200,Cn1c(=O)n(C2CCC(=O)NC2=O)c2cccc(C3CCN(C[C@H]4CC[C@H](n5cc6cc(NC(=O)c7ncc(Cl)s7)ccc6n5)CC4)CC3)c21 (some centres unmarked) [I-247]
3,> 200,Cc1cc2nn([C@H]3CC[C@H](CN4CCN(c5cccc6c5n(C)c(=O)n6C5CCC(=O)N(C)C5=O)CC4)CC3)cc2cc1NC(=O)c1cccc(C(F)(F)F)n1 (some centres unmarked) [I-404]
4,10 to 50,COc1cc2nn([C@H]3CC[C@H](CN4CCC(O[C@H]5C[C@H](c6cccc7c6n(C)c(=O)n7C6CCC(=O)NC6=O)C5)CC4)CC3)cc2cc1NC(=O)c1cccc(C(F)(F)F)n1 (some centres unmarked) [I-386]
5,10 to 50,Cc1ccc2c(c1C1CCN(C[C@H]3CC[C@H](n4cc5cc(NC(=O)c6cccc(C(F)(F)F)n6)c(Cl)cc5n4)CC3)CC1)n(C)c(=O)n2C1CCC(=O)NC1=O (some centres unmarked) [I-73]
6,100 to 200,CN(CCNc1cccc2c1C(=O)N(C1CCC(=O)NC1=O)C2=O)C(=O)[C@H]1CC[C@H](c2nc3cc(C(C)(C)O)c(NC(=O)c4cccc(C(F)(F)F)n4)cc3s2)CC1 (some centres unmarked) [I-488]
7,> 200,"Cn1c(=O)n(C2CCC(=O)NC2=O)c2cccc(N3CC4CC(C3)N4C[C@H]3CC[C@@H](n4cc5cc(NC(=O)c6cccc(C(F)(F)F)n6)ccc5n4)CC3)c21 (single isomer, unassigned) [I-156, N-[2-[4-[[3-[1-(2,6-dioxo-3-piperidyl)-3-methyl-2-oxo-benzimidazol-4-yl]-3,6-diazabicyclo[3.1.1]heptan-6-yl]methyl]cyclohexyl]indazol-5-yl]-6-(trifluoromethyl)pyridine-2-carboxamide]"
8,< 10,COc1cc2nn([C@H]3CC[C@H](CN4CCC(c5cccc6c5n(C)c(=O)n6C5CCC(=O)NC5=O)CC4)CC3)cc2cc1NC(=O)c1cncc(C(F)(F)F)c1 (some centres unmarked) [I-86]
9,< 10,COc1cc2nn([C@H]3CC[C@H](CN4CC[C@@H](c5cccc6c5n(C)c(=O)n6C5CCC(=O)NC5=O)C4)CC3)cc2cc1NC(=O)c1cccc(C(F)(F)F)n1 (some centres unmarked) [I-428]
10,< 10,Cn1c(=O)n(C2CCC(=O)NC2=O)c2cccc(C3CCN(C[C@H]4CC[C@H](n5cc6cc(NC(=O)c7cccc(C(F)(F)F)c7F)ccc6n5)CC4)CC3)c21 (some centres unmarked) [I-214]
11,< 10,CN(C)c1cc2nn([C@H]3CC[C@H](CN4CCC(c5cccc6c5n(C)c(=O)n6C5CCC(=O)NC5=O)CC4)CC3)cc2cc1NC(=O)c1cccc(C(F)(F)F)n1 (some centres unmarked) [I-107]
12,< 10,CC(C)Nc1cc(-c2ccc3cc(C#N)cnn23)ncc1C(=O)N[C@H]1CC[C@H](CN2CCN(c3cccc4c3n(C)c(=O)n4C3CCC(=O)NC3=O)CC2)CC1 (some centres unmarked) [I-362]
13,< 10,COc1ccc2c(c1C1=CCN(C[C@H]3CC[C@H](n4cc5cc(NC(=O)c6cccc(C(F)(F)F)n6)ccc5n4)CC3)CC1)n(C)c(=O)n2C1CCC(=O)NC1=O (some centres unmarked) [I-355]
14,< 10,CC(C)(O)c1cc2nc([C@H]3CC[C@H](C(=O)N4CCN(CCCNc5cccc6c5C(=O)N(C5CCC(=O)NC5=O)C6=O)CC4)CC3)sc2cc1NC(=O)c1cccc(C(F)(F)F)n1 (some centres unmarked) [I-493]
15,< 10,O=C1CCN(c2cncc3c(N4CCN(C[C@H]5CC[C@H](n6cc7cc(NC(=O)c8cccc(C(F)(F)F)n8)c(C(F)F)cc7n6)CC5)CC4)cccc23)C(=O)N1 [I-371]
16,> 200,COc1cc2nc([C@H]3CC[C@H](CN(C)CCCNc4cccc5c4C(=O)N(C4CCC(=O)NC4=O)C5=O)CC3)sc2cc1NC(=O)c1cncc(Cl)c1 (some centres unmarked) [I-483]
17,> 200,CN(C[C@H]1CC[C@H](n2cc3cc(NC(=O)c4cncc(C#N)c4)c(N4C[C@H]5C[C@@H]4CO5)cc3n2)CC1)C1CCN(c2cccc3c2n(C)c(=O)n3C2CCC(=O)NC2=O)CC1 (some centres unmarked) [I-217]
18,< 10,Cn1c(=O)n(C2CCC(=O)NC2=O)c2ccc(F)c(C3CCN(C[C@H]4C[C@H](n5cc6cc(NC(=O)c7cccc(C(F)(F)F)n7)ccc6n5)C4)CC3)c21 (some centres unmarked) [I-151]
19,< 10,CC(C)Nc1cc(-n2ccc3cc(C#N)cnc32)ncc1C(=O)N[C@H]1CC[C@H](CN2CCC(c3cccc4c(N5CCC(=O)NC5=O)cncc34)CC2)CC1 [I-190]
20,< 10,Cc1ccc2c(c1C1CCN(C[C@H]3CC[C@H](n4cc5cc(NC(=O)c6cccc(C(F)(F)F)n6)ccc5n4)CC3)CC1)n(C)c(=O)n2C1CCC(=O)NC1=O (some centres unmarked) [I-99]
21,> 200,COc1cc2nn([C@H]3CC[C@H](CN4CCN(c5cccc6c(N7CCC(=O)N(C)C7=O)cncc56)CC4)CC3)cc2cc1NC(=O)c1cccc(C(F)(F)F)n1 [I-330]
22,< 10,COc1cc2nn([C@H]3CC[C@H](CN4CCC(c5c(C)ccc6c5n(C)c(=O)n6C5CCC(=O)NC5=O)CC4)CC3)cc2cc1NC(=O)c1cccc(C(F)(F)F)n1 (some centres unmarked) [I-39]
23,< 10,CC(C)Nc1cc(-c2ccc3cc(C#N)cnn23)ncc1C(=O)N[C@H]1CC[C@H](CN2CCC(c3cccc4c(N5CCC(=O)NC5=O)cncc34)CC2)CC1 [I-184]
24,< 10,COc1ccc2c(c1C1CCN(C[C@H]3CC[C@H](n4cc5cc(NC(=O)c6cccc(C#N)n6)ccc5n4)CC3)CC1)n(C)c(=O)n2C1CCC(=O)NC1=O (some centres unmarked) [I-200]
25,10 to 50,Cc1cc2nn([C@H]3CC[C@H](CN4CCN(c5cccc6c5n(C5CC5)c(=O)n6C5CCC(=O)NC5=O)CC4)CC3)cc2cc1NC(=O)c1cccc(C(F)(F)F)n1 (some centres unmarked) [I-304]
26,< 10,Cn1c(=O)n(C2CCC(=O)NC2=O)c2cccc(C#CCN3CCN(C[C@H]4CC[C@H](n5cc6cc(NC(=O)c7cccc(C(F)(F)F)n7)c(C(C)(C)O)cc6n5)CC4)CC3)c21 (some centres unmarked) [I-326]
